According to US6355799B1, “Substituted benzene compounds, process for their preparation, and herbicidal and defoliant compositions containing them” (ISK Americas Incorporated, priority 1997, dated 2002):

Assays:
Type in all cases: in vivo
[1] = system: lambsquarters (Chenopodium album, CHEAL); experiment: Post-emerge test, greenhouse herbicide activity screening; conditions: rating scale 0-100 (0 no damage, 100 complete death), 14 days after application
How it was run: (§1)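 Each test used a mechanized track sprayer delivering 187 l/ha of acetone solution at 15–1000 g ai/ha. Post-emerge foliage at 2–3 leaves was treated with added 0.25% v/v non-ionic surfactant and bottom-watered only. Injury was assessed on day 14, where 100 means total kill.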

[2] = system: ivyleaf morningglory (Ipomoea hederacea, IPOHE); experiment: as above; conditions: rating scale 0-100 (0 no damage, 100 complete death), 14 days after application
How it was run: as §1

[3] = system: velvetleaf (Abutilon theophrasti, ABUTH); experiment: as above; conditions: rating scale 0-100 (0 no damage, 100 complete death), 14 days after application
How it was run: as §1

[4] = system: large crabgrass (Digitaria sanguinalis, DIGSA); experiment: as above; conditions: rating scale 0-100 (0 no damage, 100 complete death), 14 days after application
How it was run: as §1

[5] = system: green foxtail (Setaria viridis, SETVI); experiment: as above; conditions: rating scale 0-100 (0 no damage, 100 complete death), 14 days after application
How it was run: as §1

[6] = system: barnyardgrass (Echinochloa crus-galli, ECHCG); experiment: as above; conditions: rating scale 0-100 (0 no damage, 100 complete death), 14 days after application
How it was run: as §1

[7] = system: sicklepod (Cassia obtusifolia, CASOB); experiment: as above; conditions: rating scale 0-100 (0 no damage, 100 complete death), 14 days after application
How it was run: as §1

[8] = system: common ragweed (Ambrosia artemisizfolia L., AMBEL); experiment: as above; conditions: rating scale 0-100 (0 no damage, 100 complete death), 14 days after application
How it was run: as §1

[9] = system: johnsongrass (Sorghum halepense, SORHA); experiment: as above; conditions: rating scale 0-100 (0 no damage, 100 complete death), 14 days after application
How it was run: as §1

[10] = system: redroot pigweed (Amaranthus retroflexus, AMARE); experiment: as above; conditions: rating scale 0-100 (0 no damage, 100 complete death), 14 days after application
How it was run: as §1

[11] = system: redroot pigweed (Amaranthus retroflexus, AMARE); experiment: Pre-emerge test, greenhouse herbicide activity screening; conditions: rating scale 0-100, 14 days after application
How it was run: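 Plants grown in 10 cm pots of sandy loam mix received acetone-dissolved compounds through a moving flat-fan nozzle. Doses ranged from 15 to 1000 g ai/ha. Pre-emerge pots were seeded one day earlier, post-emerge pots 8–21 days earlier. Fourteen days on, each pot was graded 0–100 for damage.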

[12] = system: lambsquarters (Chenopodium album, CHEAL); experiment: as above; conditions: rating scale 0-100, 14 days after application
How it was run: (§2)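 Applied at 15–1000 g ai/ha from acetone in 187 l/ha spray volume. Post-emergence applications included 0.25% v/v non-ionic surfactant and reached plants sown 8–21 days before. Pre-emergence applications were incorporated by surface watering. Efficacy or crop damage was rated on a 0–100 scale after 14 days.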

[13] = system: ivyleaf morningglory (Ipomoea hederacea, IPOHE); experiment: as above; conditions: rating scale 0-100, 14 days after application
How it was run: as §2

[14] = system: velvetleaf (Abutilon theophrasti, ABUTH); experiment: as above; conditions: rating scale 0-100, 14 days after application
How it was run: as §2

[15] = system: large crabgrass (Digitaria sanguinalis, DIGSA); experiment: as above; conditions: rating scale 0-100, 14 days after application
How it was run: as §2

[16] = system: green foxtail (Setaria viridis, SETVI); experiment: as above; conditions: rating scale 0-100, 14 days after application
How it was run: as §2

[17] = system: barnyardgrass (Echinochloa crus-galli, ECHCG); experiment: as above; conditions: rating scale 0-100, 14 days after application
How it was run: as §2

[18] = system: sicklepod (Cassia obtusifolia, CASOB); experiment: as above; conditions: rating scale 0-100, 14 days after application
How it was run: as §2

[19] = system: johnsongrass (Sorghum halepense, SORHA); experiment: as above; conditions: rating scale 0-100, 14 days after application
How it was run: as §2

[20] = system: field corn (Zea mays L., var. Dekalb 535, CORN); experiment: Post-emerge test, crop safety; conditions: rating scale 0-100 (0 no damage, 100 complete death), 14 days after application
How it was run: as §2

[21] = system: upland rice (Oryza sp., var. Tebonnet, RICE); experiment: Post-emerge test, crop safety; conditions: rating scale 0-100 (0 no damage, 100 complete death), 14 days after application
How it was run: as §2

[22] = system: field corn (Zea mays L., var. Dekalb 535, CORN); experiment: Pre-emerge test, crop safety; conditions: rating scale 0-100, 14 days after application
How it was run: (§3)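 Herbicidal damage is scored 0 (none) to 100 (complete plant death) two weeks after a simulated field spray. Rates span 15–1000 g ai/ha, delivered in acetone at 187 l/ha. For post-emergence treatments, plants have 2–3 leaves and the spray carries 0.25% v/v non-ionic surfactant.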

[23] = system: upland rice (Oryza sp., var. Tebonnet, RICE); experiment: Pre-emerge test, crop safety; conditions: rating scale 0-100, 14 days after application
How it was run: as §3

COc1c(Cl)cc(F)c(-n2c(=O)cc(C(F)(F)F)n(C)c2=O)c1CC(Cl)C(=O)OCC(C)C (single isomer, unassigned) [14-15] was tested, and the “Post-emerge Herbicidal Activity, phytotoxicity rating CHEAL” value ([1]; Rate 63 g ai/ha) was 50, the “Post-emerge Herbicidal Activity, phytotoxicity rating CHEAL” value ([1]; Rate 250 g ai/ha) was 100 and the “Post-emerge Herbicidal Activity, phytotoxicity rating IPOHE” value ([2]; Rate 63 g ai/ha) was 50. For the same compound, the “Post-emerge Herbicidal Activity, phytotoxicity rating IPOHE” value ([2]; Rate 250 g ai/ha) was 90, the “Post-emerge Herbicidal Activity, phytotoxicity rating ABUTH” value ([3]; Rate 63 g ai/ha) was 60 and the “Post-emerge Herbicidal Activity, phytotoxicity rating ABUTH” value ([3]; Rate 250 g ai/ha) was 90. The “Post-emerge Herbicidal Activity, phytotoxicity rating DIGSA” value ([4]; Rate 63 g ai/ha) was 95, the “Post-emerge Herbicidal Activity, phytotoxicity rating DIGSA” value ([4]; Rate 250 g ai/ha) was 100 and the “Post-emerge Herbicidal Activity, phytotoxicity rating SETVI” value ([5]; Rate 63 g ai/ha) was 70. The “Post-emerge Herbicidal Activity, phytotoxicity rating SETVI” value ([5]; Rate 250 g ai/ha) was 80, the “Post-emerge Herbicidal Activity, phytotoxicity rating ECHCG” value ([6]; Rate 63 g ai/ha) was 100 and the “Post-emerge Herbicidal Activity, phytotoxicity rating ECHCG” value ([6]; Rate 250 g ai/ha) was 100. For the same compound, the “Post-emerge Herbicidal Activity, phytotoxicity rating CASOB” value ([7]; Rate 63 g ai/ha) was 0, the “Post-emerge Herbicidal Activity, phytotoxicity rating CASOB” value ([7]; Rate 250 g ai/ha) was 50 and the “Post-emerge Herbicidal Activity, phytotoxicity rating AMBEL” value ([8]; Rate 63 g ai/ha) was 20. For the same compound, the “Post-emerge Herbicidal Activity, phytotoxicity rating AMBEL” value ([8]; Rate 250 g ai/ha) was 100, the “Post-emerge Herbicidal Activity, phytotoxicity rating SORHA” value ([9]; Rate 63 g ai/ha) was 50 and the “Post-emerge Herbicidal Activity, phytotoxicity rating SORHA” value ([9]; Rate 250 g ai/ha) was 40. For the same compound, the “Post-emerge Herbicidal Activity, phytotoxicity rating AMARE” value ([10]; Rate 63 g ai/ha) was 100, the “Post-emerge Herbicidal Activity, phytotoxicity rating AMARE” value ([10]; Rate 250 g ai/ha) was 100 and the “Pre-emerge herbicidal activity, phytotoxicity rating AMARE” value ([11]; 63 g ai/ha) was 100. The “Pre-emerge herbicidal activity, phytotoxicity rating AMARE” value ([11]; 250 g ai/ha) was 100, the “Pre-emerge herbicidal activity, phytotoxicity rating CHEAL” value ([12]; 63 g ai/ha) was 20 and the “Pre-emerge herbicidal activity, phytotoxicity rating CHEAL” value ([12]; 250 g ai/ha) was 95. The “Pre-emerge herbicidal activity, phytotoxicity rating IPOHE” value ([13]; 63 g ai/ha) was 0, the “Pre-emerge herbicidal activity, phytotoxicity rating IPOHE” value ([13]; 250 g ai/ha) was 20 and the “Pre-emerge herbicidal activity, phytotoxicity rating ABUTH” value ([14]; 63 g ai/ha) was 50. The “Pre-emerge herbicidal activity, phytotoxicity rating ABUTH” value ([14]; 250 g ai/ha) was 100, the “Pre-emerge herbicidal activity, phytotoxicity rating DIGSA” value ([15]; 63 g ai/ha) was 70 and the “Pre-emerge herbicidal activity, phytotoxicity rating DIGSA” value ([15]; 250 g ai/ha) was 100. The “Pre-emerge herbicidal activity, phytotoxicity rating SETVI” value ([16]; 63 g ai/ha) was 0, the “Pre-emerge herbicidal activity, phytotoxicity rating SETVI” value ([16]; 250 g ai/ha) was 30 and the “Pre-emerge herbicidal activity, phytotoxicity rating ECHCG” value ([17]; 63 g ai/ha) was 0. For the same compound, the “Pre-emerge herbicidal activity, phytotoxicity rating ECHCG” value ([17]; 250 g ai/ha) was 80, the “Pre-emerge herbicidal activity, phytotoxicity rating CASOB” value ([18]; 63 g ai/ha) was 0 and the “Pre-emerge herbicidal activity, phytotoxicity rating CASOB” value ([18]; 250 g ai/ha) was 40. For the same compound, the “Pre-emerge herbicidal activity, phytotoxicity rating SORHA” value ([19]; 63 g ai/ha) was 0, the “Pre-emerge herbicidal activity, phytotoxicity rating SORHA” value ([19]; 250 g ai/ha) was 0 and the “Post-emerge phytotoxicity rating CORN (crop damage)” value ([20]; Rate 63 g ai/ha) was 20. The “Post-emerge phytotoxicity rating CORN (crop damage)” value ([20]; Rate 250 g ai/ha) was 60, the “Post-emerge phytotoxicity rating RICE (crop damage)” value ([21]; Rate 63 g ai/ha) was 0 and the “Post-emerge phytotoxicity rating RICE (crop damage)” value ([21]; Rate 250 g ai/ha) was 0. For the same compound, the “Pre-emerge phytotoxicity rating, crop damage CORN” value ([22]; 63 g ai/ha) was 0, the “Pre-emerge phytotoxicity rating, crop damage CORN” value ([22]; 250 g ai/ha) was 0 and the “Pre-emerge phytotoxicity rating, crop damage RICE” value ([23]; 63 g ai/ha) was 0. The “Pre-emerge phytotoxicity rating, crop damage RICE” value ([23]; 250 g ai/ha) was 0.
